Test results from ChEMBL document CHEMBL1127715, “Perhydrothiopyranopyrroles derivatives : A novel series of potent and selective nonpeptide NK1 antagonists” (Bioorg Med Chem Lett, 1994).

What was measured:
Cavia porcellus = organism: Cavia porcellus; assay: Compound was evaluated for antagonism of the contractile effect in guinea pig ileum preparation; assay type: functional
Substance-P receptor [1] = target: T1, Substance-P receptor (Homo sapiens, UniProt P25103); assay: Compound was evaluated for binding affinity against human Tachykinin receptor 1
T1 sequence (P25103 whole entry): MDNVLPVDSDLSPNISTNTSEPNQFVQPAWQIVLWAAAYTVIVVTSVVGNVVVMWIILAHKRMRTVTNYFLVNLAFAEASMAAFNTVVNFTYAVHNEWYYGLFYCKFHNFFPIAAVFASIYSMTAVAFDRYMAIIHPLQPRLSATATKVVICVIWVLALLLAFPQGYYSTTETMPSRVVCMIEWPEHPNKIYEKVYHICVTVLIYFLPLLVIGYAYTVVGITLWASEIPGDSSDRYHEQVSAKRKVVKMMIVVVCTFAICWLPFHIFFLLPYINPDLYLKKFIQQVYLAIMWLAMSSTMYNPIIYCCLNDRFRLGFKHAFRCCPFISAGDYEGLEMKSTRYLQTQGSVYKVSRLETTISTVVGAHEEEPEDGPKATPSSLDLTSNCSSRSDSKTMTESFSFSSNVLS

Substance-P receptor [2] = target: T1, Substance-P receptor; assay: Compound was evaluated for its affinity, measured in [3H]SP binding assay on human IM9 lymphoblast cultured cell line
Substance-P receptor [3] = target: Substance-P receptor (Cavia porcellus, UniProt P30547); assay: Compound was evaluated for its affinity to guinea pig Tachykinin receptor 1
Chain of Substance-P receptor (Cavia porcellus, UniProt P30547) (P30547 whole entry): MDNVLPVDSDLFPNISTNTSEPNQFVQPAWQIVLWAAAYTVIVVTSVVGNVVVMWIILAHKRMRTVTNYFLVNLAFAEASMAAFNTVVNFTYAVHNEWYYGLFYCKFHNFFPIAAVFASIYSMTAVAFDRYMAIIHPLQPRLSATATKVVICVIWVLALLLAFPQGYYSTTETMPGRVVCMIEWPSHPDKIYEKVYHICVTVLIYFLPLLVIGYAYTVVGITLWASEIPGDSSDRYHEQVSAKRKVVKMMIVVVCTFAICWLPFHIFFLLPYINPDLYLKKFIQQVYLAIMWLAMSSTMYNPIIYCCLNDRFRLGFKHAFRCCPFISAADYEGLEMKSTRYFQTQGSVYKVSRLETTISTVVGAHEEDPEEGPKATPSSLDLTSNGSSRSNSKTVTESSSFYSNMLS

Substance-P receptor [4] = target: Substance-P receptor (Rattus norvegicus, UniProt P14600); assay: Compound was evaluated for its affinity to rat Tachykinin receptor 1
Chain of Substance-P receptor (Rattus norvegicus, UniProt P14600) (P14600 whole entry): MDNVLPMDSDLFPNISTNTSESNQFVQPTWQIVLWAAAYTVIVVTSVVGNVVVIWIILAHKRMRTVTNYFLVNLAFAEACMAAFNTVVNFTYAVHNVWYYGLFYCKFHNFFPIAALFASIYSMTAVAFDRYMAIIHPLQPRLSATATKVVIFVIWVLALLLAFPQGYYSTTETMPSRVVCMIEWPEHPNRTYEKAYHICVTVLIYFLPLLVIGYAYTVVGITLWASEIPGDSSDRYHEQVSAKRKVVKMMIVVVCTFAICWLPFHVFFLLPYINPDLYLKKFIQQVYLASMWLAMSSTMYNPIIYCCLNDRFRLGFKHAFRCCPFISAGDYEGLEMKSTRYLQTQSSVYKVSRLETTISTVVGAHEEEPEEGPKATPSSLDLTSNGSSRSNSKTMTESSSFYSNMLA

Mus musculus = organism: Mus musculus; assay: Compound was evaluated for inhibiting PBQ induced writhing in mice perorally; assay type: functional

COc1ccccc1[C@H](C)C(=O)N1CC2[C@@H](C1)C(c1ccccc1)(c1ccccc1)CC[S+]2[O-] (stereo partly specified)
IC50 (Cavia porcellus): 20 nM
IC50 (Substance-P receptor [1]): 23 nM
IC50 (Substance-P receptor [2]): 49 nM
IC50 (Substance-P receptor [3]): 70 nM
IC50 (Substance-P receptor [4]): 10 nM
ED50 (Mus musculus): 5 mg/kg
